Patent publication US12065442B2, “Tropomyosin receptor kinase (TRK) degradation compounds and methods of use” (Cullgen (Shanghai), Inc., priority 2018, dated 2024)
Entries after “also recorded” stand apart in the source; their conditions may differ. Like-named read-outs stand apart in the source and are kept apart here.

Tests used:
[1] = tested on: KM12 cells; experiment: Cell viability assay (CellTiter-Glo) in KM12 cells; type: cell-based; details: for IC50: Homo sapiens, 72 h, KM12 cell viability, CellTiter-Glo, 3 days, read-out: IC50
[2] = tested on: TRK-fusions; details: cited from earlier work
[3] = tested on: KRAS-mutant H358 cells; experiment: Cell viability assay (CellTiter-Glo) in H358 cells; type: cell-based; details: 1000 nM, 8-point 3-fold serial dilution, 3 days (FIG. 4B)
Description: The kinase activity of TRK is known to play important roles in tumors expressing TRK-fusion proteins, as TRK kinase inhibitors compromise cell proliferation, survival, and induce marked clinical responses (Amatu et al., 2016; Drilon et al., 2018; Drilon et al., 2017; Khotskaya et al., 2017). […] Three days after treatment, cell viability was determined using the CellTiter-Glo kit following manufacturer's instructions. Cell viability was normalized to the mean values of 3 replicates of untreated cells. Dose-dependent response was analyzed following the least-squares non-linear regression method using the GraphPad Prism 5.0 software. Each data point in the figure represents the mean values of three technical replicates±standard deviation. […] More specifically, all bivalent compounds that had IC50 values smaller than 1000 nM in KM12 cells induced degradation of TPM3-TRKA (FIG. 1 and Table 2-4). […]
Cells were seeded at a density of 5000 cells per well in 96-well assay plates and treated with test compounds following a 12-point 2-fold serial dilution or a 8-point 3-fold dilution. Three days later, cell viability was determined using the CellTiter-Glo assay kit (Promega) according to the manufacturer's instructions. The dose-response curves were determined and IC50 values were calculated using the GraphPad Prism software following a nonlinear regression (least squares fit) method.

[4] = target: T1, TPM3-TRKA fusion protein (Homo sapiens, UniProt P04629+P06753+Q96SW2); experiment: Immunoblotting of TPM3-TRKA fusion protein in KM12 cells; type: cell-based; design: The resulted chimeric proteins always retain the kinase domain of TRK proteins; TPM3 (N-terminal fusion partner, natural gene fusion); endogenous in cells; host or cells: KM12 colon cancer cells; details: for time after adding compound at which significant degradation of TPM3-TRKA was detected: 100 nM (FIG. 2); for TPM3-TRKA protein levels / TPM3-TRKA protein levels, time course: 100 nM; for TPM3-TRKA protein levels: 16 hours (FIG. 1A-1C); for TPM3-TRKA protein levels, time course: indicated incubation time (FIG. 2)
T1 sequence (P06753+P04629 fused): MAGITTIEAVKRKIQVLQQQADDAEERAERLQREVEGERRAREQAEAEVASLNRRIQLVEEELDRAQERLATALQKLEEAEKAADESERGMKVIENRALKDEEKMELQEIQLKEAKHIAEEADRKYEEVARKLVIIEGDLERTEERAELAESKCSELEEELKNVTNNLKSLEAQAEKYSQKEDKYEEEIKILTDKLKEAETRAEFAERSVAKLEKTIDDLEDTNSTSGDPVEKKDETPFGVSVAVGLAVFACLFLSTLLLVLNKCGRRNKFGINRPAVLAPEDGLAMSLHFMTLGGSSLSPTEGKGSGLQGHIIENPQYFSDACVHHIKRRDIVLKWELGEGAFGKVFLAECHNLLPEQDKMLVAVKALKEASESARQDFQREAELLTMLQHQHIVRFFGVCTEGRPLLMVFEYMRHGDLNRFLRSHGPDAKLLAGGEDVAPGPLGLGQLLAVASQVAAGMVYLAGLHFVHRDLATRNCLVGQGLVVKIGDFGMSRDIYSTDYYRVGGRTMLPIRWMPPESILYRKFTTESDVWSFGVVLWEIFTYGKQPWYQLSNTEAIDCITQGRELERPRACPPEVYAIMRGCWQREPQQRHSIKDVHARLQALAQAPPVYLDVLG
T1 sequence (Q96SW2 whole entry, the tested form may be a part): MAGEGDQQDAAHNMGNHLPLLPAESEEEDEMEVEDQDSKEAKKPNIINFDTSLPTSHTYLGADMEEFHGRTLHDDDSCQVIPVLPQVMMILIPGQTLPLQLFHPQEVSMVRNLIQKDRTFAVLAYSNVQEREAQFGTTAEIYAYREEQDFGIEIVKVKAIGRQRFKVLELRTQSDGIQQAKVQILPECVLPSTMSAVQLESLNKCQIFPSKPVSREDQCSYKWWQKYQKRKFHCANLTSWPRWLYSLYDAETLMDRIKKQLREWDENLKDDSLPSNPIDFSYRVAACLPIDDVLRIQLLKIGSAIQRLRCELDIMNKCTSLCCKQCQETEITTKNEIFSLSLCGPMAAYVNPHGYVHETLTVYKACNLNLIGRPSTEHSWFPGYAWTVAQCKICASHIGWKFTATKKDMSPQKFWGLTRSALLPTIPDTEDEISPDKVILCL
T1 sequence (Q16531 whole entry partner, the tested form may be a part): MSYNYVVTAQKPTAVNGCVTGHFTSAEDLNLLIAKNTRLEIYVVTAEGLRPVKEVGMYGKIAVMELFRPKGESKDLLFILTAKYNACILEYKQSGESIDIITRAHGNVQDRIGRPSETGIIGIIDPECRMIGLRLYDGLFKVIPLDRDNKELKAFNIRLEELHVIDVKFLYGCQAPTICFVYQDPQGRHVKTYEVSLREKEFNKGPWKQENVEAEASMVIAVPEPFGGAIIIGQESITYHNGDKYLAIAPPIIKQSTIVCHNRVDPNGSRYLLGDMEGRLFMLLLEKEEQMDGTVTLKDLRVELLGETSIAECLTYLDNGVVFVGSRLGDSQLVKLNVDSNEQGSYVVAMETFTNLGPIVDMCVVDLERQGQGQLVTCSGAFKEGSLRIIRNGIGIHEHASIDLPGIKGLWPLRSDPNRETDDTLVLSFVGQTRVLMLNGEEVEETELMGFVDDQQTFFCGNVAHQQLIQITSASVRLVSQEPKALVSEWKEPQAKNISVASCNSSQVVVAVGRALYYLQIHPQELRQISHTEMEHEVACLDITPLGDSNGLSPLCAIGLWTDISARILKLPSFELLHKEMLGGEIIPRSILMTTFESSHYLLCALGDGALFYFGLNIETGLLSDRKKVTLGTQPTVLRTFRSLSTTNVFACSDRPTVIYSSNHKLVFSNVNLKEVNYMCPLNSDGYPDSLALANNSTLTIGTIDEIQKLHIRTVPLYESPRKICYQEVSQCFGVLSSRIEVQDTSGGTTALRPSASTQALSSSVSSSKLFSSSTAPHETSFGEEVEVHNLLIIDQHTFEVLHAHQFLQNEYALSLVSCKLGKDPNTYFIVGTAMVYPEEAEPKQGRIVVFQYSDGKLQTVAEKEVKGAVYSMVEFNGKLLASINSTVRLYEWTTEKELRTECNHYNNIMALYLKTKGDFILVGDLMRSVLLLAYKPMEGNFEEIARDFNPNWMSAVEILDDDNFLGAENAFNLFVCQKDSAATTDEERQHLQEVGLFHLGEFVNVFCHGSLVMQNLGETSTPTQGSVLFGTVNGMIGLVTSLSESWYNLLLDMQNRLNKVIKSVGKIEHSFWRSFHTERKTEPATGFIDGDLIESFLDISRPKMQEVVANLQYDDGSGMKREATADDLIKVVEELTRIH
Description: Specific exemplary bivalent compounds were characterized in KM12 cells. […] Cells were collected, lysed and subject to immunoblotting using an antibody specific to TRK proteins. GAPDH was included as the loading control. DMSO was used as the negative control.
KM12 cells were treated with DMSO or indicated compounds at 100 nM for 16 hours.
KM12 cells were treated with CPD-027, CPD-053, and CPD-060 at 100 nM for indicated incubation time. […]
KM12 or HEL cells were treated with a dose range of compound TR-123 or TR-123-negative. The latter lost binding to cereblon (CRBN) due to a chemical modification.
KM12 or HEL cells were treated with a single dose of compound TR-123 or combination with MG-132, Bortezomib, MLN4924 or Pomalidomide. […]
(§1) Cultured cells were washed with cold PBS once and lysed in cold RIPA buffer supplemented with protease inhibitors and phosphatase inhibitors (Beyotime Biotechnology). The solutions were then incubated at 4° C. for 30 minutes with gentle agitation to fully lyse cells. For tumor tissues, tumors were cut into small pieces, milled with cold RIPA buffer using a mechanical homogenizer and lysed for 1 hour at 4° C. Cell lysates were centrifuged at 13,000 rpm for 10 minutes at 4° C. and pellets were discarded. Total protein concentrations in the lysates were determined by BCA assays (Beyotime Biotechnology). Cell lysates were mixed with Laemmli loading buffer to 1× and heated at 99° C. for 5 min. Proteins were resolved on SDS-PAGE and visualized by chemiluminescence. Images were taken by a ChemiDoc MP Imaging system (Bio-Rad). Protein bands were quantitated using the software provided by Bio-Rad.

[5] = target: T1, TPM3-TRKA fusion protein; experiment: Immunoblotting of TPM3-TRKA in KM12 subcutaneous xenograft tumors; type: in vivo, Athymic nude mice; design: The resulted chimeric proteins always retain the kinase domain of TRK proteins; TPM3 (N-terminal fusion partner, natural gene fusion); from tissue; host or cells: KM12 subcutaneous xenograft tumors in athymic nude mice; details: 10, 20, or 50 mg/kg intraperitoneally, single dose, four hours after administration (FIG. 3)
Description: In addition to cultured cells, athymic nude mice bearing KM12 subcutaneous xenograft tumors at the right flank were intraperitoneally treated with 10, 20, or 50 mg/kg CPD-053, CPD-027, or CPD-060. Four hours after drug administration, animals were sacrificed for immunoblotting of TPM3-TPKA in homogenized xenograft tumor masses. The label “a” or “b” represents two different samples of the same xenograft tumor.
Athymic nude mice bearing KM12 subcutaneous xenograft tumors at the right flank were intraperitoneally treated with 10, 20, or 50 mg/kg CPD-053, CPD-027, or CPD-060, as indicated in FIG. 3. Four hours after drug administration, animals were sacrificed for immunoblotting of TPM3-TPKA in homogenized xenograft tumor chunks. The label “a” or “b” represents two different chunks of the same xenograft tumor.
Athymic nude mice bearing KM12 subcutaneous xenograft tumors at the right flank were intraperitoneally or orally treated with bivalent compounds at indicated dose. Eight hours after drug administration, animals were sacrificed for immunoblotting of TPM3-TPKA in homogenized xenograft tumor samples.
as §1
(§2) All animal experiments were performed under protocols approved by the Institutional Animal Care and Use Committee (IACUC) of Cullgen. Athymic nude mice (male, 5-weeks old) received 5 million KM12 cells subcutaneously inoculated at the right flank site. Ten days following inoculation, tumors were approximately 500 mm3 in size. Tumor-bearing mice were treated intraperitoneally with vehicle or bivalent compounds at indicated doses. Tumor sizes and body weight of mice were measured every 2 days. In addition, immunoblotting assays were employed to assess the levels of TRKA fusion proteins in xenograft tumors around 500 mm^3 in size following drug administration. At indicated hours after drug administration, selected mice were sacrificed, tumors were resected. Small chunks of tumors were homogenized for immunoblotting of TPM3-TPKA and other proteins as indicated.

[6] = Body weight of xenograft-bearing mice (toxicity); type: in vivo, Athymic nude mice
Description: (§3) Athymic nude mice bearing KM12 subcutaneous xenograft tumors at the right flank were intraperitoneally treated with vehicle or 25 mg/kg CPD-060 once per day (qd), twice per day (bid), or once every two days (q2d). Tumor volumes were assessed every two days and expressed as length×width×width/2. Body weights of experimental mice were also measured to assess the toxicity of compounds.
(§4) Athymic nude mice bearing KM12 subcutaneous xenograft tumors at the right flank were treated with vehicle, 10-20 mg/kg TR-181 or TR-198 once per day (qd), or twice per day (bid) via oral gavage. Tumor volumes were assessed every two days and expressed as length×width×width/2. Body weights of experimental mice were also measured to assess the toxicity of compounds.
as §2

[7] = tested on: KM12 subcutaneous xenograft tumors; experiment: KM12 subcutaneous xenograft tumor growth study; type: in vivo, Athymic nude mice
Description: as §3, §4, §2

[8] = Mouse pharmacokinetic (PK) studies; type: in vivo; details: male, Swiss Albino, mouse, plasma; mice, 2 mg/kg intravenous injection and 20 mg/kg oral gavage, over 12 hours (FIG. 14)
Description: To investigate the pharmacokinetics of bi-functional compounds, exemplified by TR-123, a single 20 mg/kg intraperitoneal injection was evaluated. […] Additionally, doses of 2 mg/kg TR-198 via intravenous injection and 20 mg/kg TR-198 via oral gavage were evaluated in mice.
A single 20 mg/kg intraperitoneal injection of compound TR-123 was evaluated. Plasma concentrations of TR-123 reported at each of the 6 time points (30 min, 1 h, 2 h, 4 h, 8 h, and 12 h post compound administration) are the average values from 3 test animals.
A single 2 mg/kg intravenous injection and 20 mg/kg oral gavage of TR-198 were evaluated in mice.
Plasma concentrations of TR-198 reported at each of the 6 time points (5 min, 30 min, 2 h, 4 h, 8 h, and 12 h post compound administration via IV, 30 min, 1 h, 2 h, 4 h, 8 h, and 12 h post compound administration via p.o.) are the average values from 3 test animals.
Standard PK studies were conducted using male Swiss Albino mice by Sai Life Sciences. A single 20 mg/kg intraperitoneal (IP) injection of compound TR-123 was evaluated. Plasma concentrations of TR-123 reported at each of the 6 time points (30 min, 1 h, 2 h, 4 h, 8 h, and 12 h post dosing) are the average values from 3 test animals. Error bars represent+SD.

Row | SMILES | IC50 ([1]; Table 3) | IC50 ([1]; Table 2) | time after adding compound at which significant degradation of TPM3-TRKA was detected [4] | TPM3-TRKA protein levels [4] | TPM3-TRKA protein levels, time course [4] | TPM3-TRKA protein levels in KM12 subcutaneous xenograft tumors [5] | further results
1 | O=C(Nc1cnn2ccc(N3CCC[C@@H]3c3cc(F)ccc3F)nc12)N1CC[C@H](O)C1 [LOXO-101, larotrectinib] | 25 nM | – | – | – | – | – | patients who responded to the therapy ([2]; phase 2 (Drilon et al., 2018)): 75%; patients remaining progression-free ([2]; phase 2, at 1 year (Drilon et al., 2018)): 55%
2 | O=C1CCC(N2C(=O)c3cccc(NCCCC(=O)N4CCN(c5ccc(C(=O)Nc6n[nH]c7ccc(Cc8cc(F)cc(F)c8)cc67)c(NC6CCOCC6)c5)CC4)c3C2=O)C(=O)N1 (stereo not shown) [CPD-053, N-(5-(3,5-Difluorobenzyl)-1H-indazol-3-yl)-4-(4-(4-((2-(2,6-dioxopiperidin-3-yl)-1,3-dioxoisoindolin-4-yl)amino)butanoyl)piperazin-1-yl)-2-((tetrahydro-2H-pyran-4-yl)amino)benzamide] | – | 1.5 nM | 15 min | particularly effective in reducing TPM3-TRKA protein levels | rapidly reduced TPM3-TRKA protein levels | significantly reducing TPM3-TRKA protein levels | viability of H358 cells [3]: did not affect cell viability; viability of KM12 cells ([1]; 500 nM, 12-point 2-fold serial dilution, 3 days (FIG. 4A)): inhibited the viability; also recorded: dose-dependently suppressed viability; viability of KM12 cells ([1]; 1000 nM, 8-point 3-fold serial dilution, 3 days (FIG. 4B)): significantly inhibited the viability
3 | O=C(CN1CCN(c2cccc(-c3cnc4ccc(N5CCC[C@@H]5c5cccc(F)c5)nn34)n2)CC1)NCCNc1cccc2c1C(=O)N(C1CCC(=O)NC1=O)C2=O (stereo partly drawn) [CPD-060, N-(2-((2-(2,6-dioxopiperidin-3-yl)-1,3-dioxoisoindolin-4-yl)amino)ethyl)-2-(4-(6-(6-((R)-2-(3-fluorophenyl)pyrrolidin-1-yl)imidazo[1,2-b]pyridazin-3-yl)pyridin-2-yl)piperazin-1-yl)acetamide] | – | 6 nM | 15 min | particularly effective in reducing TPM3-TRKA protein levels | rapidly reduced TPM3-TRKA protein levels | significantly reducing TPM3-TRKA protein levels | body weight ([6]; 25 mg/kg intraperitoneally qd, bid or q2d (FIG. 12B)): without inducing substantial weight losses; growth of KM12 subcutaneous xenograft tumors ([7]; 25 mg/kg intraperitoneally qd, bid or q2d (FIG. 12A)): significantly repressed the growth
4 | O=C1CCC(N2C(=O)c3ccc(N4CC(CN5CCN(c6cccc(-c7cnc8ccc(N9CCC[C@@H]9c9cccc(F)c9)nn78)n6)CC5)C4)cc3C2=O)C(=O)N1 (stereo partly drawn) [TR-198, 2-(2,6-dioxopiperidin-3-yl)-5-(3-((4-(6-(6-((R)-2-(3-fluorophenyl)pyrrolidin-1-yl)imidazo[1,2-b]pyridazin-3-yl)pyridin-2-yl)piperazin-1-yl)methyl)azetidin-1-yl)isoindoline-1,3-dione] | 5.5 nM | – | – | – | – | – | body weight ([6]; 10-20 mg/kg qd or bid via oral gavage (FIG. 15B)): without inducing substantial weight losses; bioavailability [8]: ~16%; growth of KM12 subcutaneous xenograft tumors ([7]; 10-20 mg/kg qd or bid via oral gavage (FIG. 15A)): significant in vivo anti-tumor activity; also recorded: significantly repressed the growth
